Biological target: T1, GPR119 (Homo sapiens, UniProt Q8TDV5)
T1 construct: expressed in transfected cells
T1 sequence (Q8TDV5 1-335): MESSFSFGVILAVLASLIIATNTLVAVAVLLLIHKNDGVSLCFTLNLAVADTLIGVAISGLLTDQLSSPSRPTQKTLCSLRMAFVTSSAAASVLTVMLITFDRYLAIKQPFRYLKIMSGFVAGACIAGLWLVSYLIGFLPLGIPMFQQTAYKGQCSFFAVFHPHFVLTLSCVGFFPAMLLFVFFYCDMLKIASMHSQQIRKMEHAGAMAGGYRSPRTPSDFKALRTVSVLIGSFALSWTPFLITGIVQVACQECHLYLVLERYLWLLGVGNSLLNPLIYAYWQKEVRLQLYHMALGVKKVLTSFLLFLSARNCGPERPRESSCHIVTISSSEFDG
Assay: Stimulation of cAMP in CHO cells stably expressing GPR119 (HTRF/FRET cAMP immunoassay)
Type: cell-based
Details: 3 μM compound, 30 min, relative to maximal activity (=100%) of reference agonist 4-(4-{4-Nitro-3-[4-(pyridin-2-ylsulfanyl)-piperidin-1-yl]-phenoxy}-phenyl)-butan-2-one or 4-[6-(4-Methanesulfonyl-phenyl-amino)-5-nitro-pyrimidin-4-yl-oxy]-piperidine-1-carboxylic acid tert-butyl ester
Procedure: This assay was developed using a stable cell line expressing GPR119, generated as follows. GPR119 (co-pending, co-owned patent application U.S. Ser. No. 11/964,461) was cloned into Gateway pDEST 40vector (Invitrogen), using the Gateway cloning system (invitrogen) according to the manufacturer's instructions. A stable cell line was generated by transfecting a 10 cm plate of CHO cells (source) with 8 μg of this construct using Transit-CHO transfection kit (Mirus). CHO cells were plated the day prior to transfection at a density of 3,000,000 cells/plate. Clones were selected using the antibiotic G418 at 500 μg/mL. 23 clones were picked and assayed for the expression of the receptor by measuring changes in intracellular cAMP levels in response to a known GPR119 agonist.
To measure cAMP activity in response to GPR119 agonist, the clones were plated in 96 well plates at 17500 cells per well. On the day after plating, cells were incubated with the GPR119 agonist at 10 μM for 30 minutes in Ham's F12 Media (Gibco) with 0.04% DMSO. cAMP was measured using the cAMP dynamic kit from C is Bio (Bedford, Mass.) according to the manufacturer's instructions. Briefly, cells were lysed, and cAMP levels determined by competitive immunoassay using D2 labeled cAMP, and europium cryptate tagged anti cAMP antibody. When in close proximity, the D2 and europium cryptate undergo fluorescence resonance energy transfer (FRET), which is measured as a fluorescence ratio (665 nm/620 nm). Unlabelled cAMP in the cell lysate competed with the D2 labeled cAMP for the europium crypate labeled antibody. The resulting decrease in FRET signal corresponded to intracellular cAMP levels. Fluorescence was read on a BMG Labtech PHERAstar, software version 1.50.
The clone with the greatest response to IC-GPCR2 agonist was selected for the screening assay.
Compounds were dissolved in 100% DMSO to a concentration of […] to provide stock solutions. To determine activity against GPR119, compounds were incubated with GPR119 stably expressing cells (described above), at 6-8 concentrations ranging from 0.00003 to 10 micromolar, in 96 well plates, in 50 μl of Ham's F12 media for 30 minutes. Cells were plated at 17500 cells per well 1 day before running the assay. All compounds were also screened against the parental CHO cells. cAMP was measured using the cAMP dynamic kit from C is Bio (Bedford, Mass.), according to the manufacturer's instructions. Briefly, cells were lysed and cAMP levels determined by competitive immunoassay using D2 labeled cAMP, and europium cryptate tagged anti cAMP antibody. When in close proximity, the D2 and europium cryptate undergo fluorescence resonance energy transfer (FRET), which is measured as a fluorescence ratio (665 nm/620 nm). Unlabelled cAMP in the cell lysate competed with the D2 labeled cAMP for the europium crypate labeled antibody. The resulting decrease in FRET signal corresponded to intracellular cAMP levels.
To determine percent activity for a tested compound, the FRET signal value obtained at a particular concentration are compared to the Maximal FRET signal value obtained for 4-(4-{4-Nitro-3-[4-(pyridin-2-ylsulfanyl)-piperidin-1-yl]-phenoxy}-phenyl)-butan-2-one (WO 2004/076,413) or 4-[6-(4-Methanesulfonyl-phenyl-amino)-5-nitro-pyrimidin-4-yl-oxy]-piperidine-1-carboxylic acid tert-butyl ester (US 2005/070,562). The maximal activity of 4-(4-{4-Nitro-3-[4-(pyridin-2-ylsulfanyl)-piperidin-1-yl]-phenoxy}-phenyl)-butan-2-one or 4-[6-(4-Methanesulfonyl-phenyl-amino)-5-nitro-pyrimidin-4-yl-oxy]-piperidine-1-carboxylic acid tert-butyl ester is designated as 100% activity. Typically, the concentration 4-(4-{4-Nitro-3-[4-(pyridin-2-ylsulfanyl)-piperidin-1-yl]-phenoxy}-phenyl)-butan-2-one or 4-[6-(4-Methanesulfonyl-phenyl-amino)-5-nitro-pyrimidin-4-yl-oxy]-piperidine-1-carboxylic acid tert-butyl ester was approximately 10 μM. […]

Row | % Activity at 3 uM | SMILES
1 | 59.01% | CC(C)(C)OC(=O)N1CCC(n2ncc3c(Oc4ccc(S(C)(=O)=O)cc4)ncnc32)CC1 [Example 1, tert-butyl 4-(4-(4-(methylsulfonyl)phenoxy)-1H-pyrazolo[3,4-d]pyrimidin-1-yl)piperidine-1-carboxylate]
2 | 69.8% | COc1ccc(Oc2ncnc3c2cnn3C2CCN(C(=O)OC(C)(C)C)CC2)cc1 [Example 2, tert-butyl 4-(4-(4-methoxyphenoxy)-1H-pyrazolo[3,4-d]pyrimidin-1-yl)piperidine-1-carboxylate]
3 | 12.73% | CC(C)(C)OC(=O)N1CCC(n2ncc3c(Oc4ccc(Oc5ccc(C(F)(F)F)cc5)cc4)ncnc32)CC1 [Example 3, tert-butyl 4-(4-(4-(4-(trifluoromethyl)phenoxy)phenoxy)-1H-pyrazolo[3,4-d]pyrimidin-1-yl)piperidine-1-carboxylate]
4 | 69.49% | CC(C)(C)OC(=O)N1CCC(n2ncc3c(Oc4ccc(-n5ccnc5)cc4)ncnc32)CC1 [Example 4, tert-butyl 4-(4-(4-(1H-imidazol-1-yl)phenoxy)-1H-pyrazolo[3,4-d]pyrimidin-1-yl)piperidine-1-carboxylate]
5 | 60.11% | CC(C)(C)OC(=O)N1CCC(n2ncc3c(Sc4ccc(S(C)(=O)=O)cc4)ncnc32)CC1 [Example 5, tert-butyl 4-(4-(4-(methylsulfonyl)phenylthio)-1H-pyrazolo[3,4-d]pyrimidin-1-yl)piperidine-1-carboxylate]
6 | 56.96% | CC(C)(C)OC(=O)N1CCC(n2ncc3c(Oc4ccc(Oc5ccccc5)cc4)ncnc32)CC1 [Example 6, tert-butyl 4-(4-(4-phenoxyphenoxy)-1H-pyrazolo[3,4-d]pyrimidin-1-yl)piperidine-1-carboxylate]
7 | 59.61% | CC(C)(C)OC(=O)N1CCC(Cn2ncc3c(Oc4ccc(S(C)(=O)=O)cc4)ncnc32)CC1 [Example 50, tert-butyl 4-((4-(4-(methylsulfonyl)phenoxy)-1H-pyrazolo[3,4-d]pyrimidin-1-yl)methyl)piperidine-1-carboxylate]
8 | 74.66% | CC(C)(C)OC(=O)N1CCC(Cn2ncc3c(Oc4ccc(S(C)(=O)=O)cc4)ncnc32)C1 (stereo not shown) [Example 61, tert-butyl 3-((4-(4-(methylsulfonyl)phenoxy)-1H-pyrazolo[3,4-d]pyrimidin-1-yl)methyl)pyrrolidine-1-carboxylate]
9 | 67.37% | CC(C)(C)OC(=O)N1CCC(Cn2ncc3c(Oc4ccc(-n5cncn5)cc4)ncnc32)C1 (stereo not shown) [Example 62, tert-butyl 3-((4-(4-(1H-1,2,4-triazol-1-yl)phenoxy)-1H-pyrazolo[3,4-d]pyrimidin-1-yl)methyl)pyrrolidine-1-carboxylate]
10 | 51.02% | CC(C)CS(=O)(=O)N1CCC(n2ncc3c(Oc4ccc(S(C)(=O)=O)cc4)ncnc32)CC1 [Example 63, 1-(1-(isobutylsulfonyl)piperidin-4-yl)-4-(4-(methylsulfonyl)phenoxy)-1H-pyrazolo[3,4-d]pyrimidine]
11 | 2.07% | Cc1ccc(S(=O)(=O)N2CCC(n3ncc4c(Oc5ccc(S(C)(=O)=O)cc5)ncnc43)CC2)cc1 [Example 64, 4-(4-(methylsulfonyl)phenoxy)-1-(1-tosylpiperidin-4-yl)-1H-pyrazolo[3,4-d]pyrimidine]
12 | 24.15% | CS(=O)(=O)c1ccc(Oc2ncnc3c2cnn3C2CCN(S(=O)(=O)Cc3ccccc3)CC2)cc1 [Example 65, 1-(1-(benzylsulfonyl)piperidin-4-yl)-4-(4-(methylsulfonyl)phenoxy)-1H-pyrazolo[3,4-d]pyrimidine]
13 | 9.73% | CS(=O)(=O)c1ccc(Oc2ncnc3c2cnn3C2CCN(S(=O)(=O)C3CC3)CC2)cc1 [Example 66, 1-(1-(cyclopropylsulfonyl)piperidin-4-yl)-4-(4-(methylsulfonyl)phenoxy)-1H-pyrazolo[3,4-d]pyrimidine]
14 | 1.95% | CN(c1ccc(S(C)(=O)=O)cc1)c1ncnc2c1nnn2C1CCN(C(=O)OC(C)(C)C)CC1 [Example 67, tert-butyl 4-(7-(methyl(4-(methylsulfonyl)phenyl)amino)-3H-[1,2,3]triazolo[4,5-d]pyrimidin-3-yl)piperidine-1-carboxylate]
15 | 59.01% | CC(C)(C)OC(=O)N1CCC(n2nnc3c(Oc4ccc(S(C)(=O)=O)cc4)ncnc32)CC1 [Example 68, tert-butyl 4-(7-(4-(methylsulfonyl)phenoxy)-3H-[1,2,3]triazolo[4,5-d]pyrimidin-3-yl)piperidine-1-carboxylate]
16 | 48.23% | CCOC(=O)N1CCC(n2nnc3c(Oc4ccc(S(C)(=O)=O)cc4)ncnc32)CC1 [Example 69, ethyl 4-(7-(4-(methylsulfonyl)phenoxy)-3H-[1,2,3]triazolo[4,5-d]pyrimidin-3-yl)piperidine-1-carboxylate]

— patent US20110160222A1, “MODULATORS OF GLUCOSE HOMEOSTASIS FOR THE TREATMENT OF DIABETES AND METABOLIC DISORDERS” (Metabolex, Inc., priority 2008, published 2011)
